According to US20190093170A1, “USE OF TRANSLATIONAL PROFILING TO IDENTIFY TARGET MOLECULES FOR THERAPEUTIC TREATMENT” (THE REGENTS OF THE UNIVERSITY OF CALIFORNIA, priority 2013, published 2019):

Test system: PC3 human prostate cancer cells
Assay: Ribosome profiling: translational efficiency (ribosome footprint vs RNA-seq read density);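 further: Per-gene footprint-to-mRNA density ratio averaged per codon over the coding sequence, scaled so the median gene equals 1.0 after excluding regulated genes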
Format: cell-based
Details: for Rapamycin TrlEff: 3-hour treatment with rapamycin (50 nM) in PC3 cells
Experimental: Given the critical role for mTOR in prostate cancer, PC3 human prostate cancer cells, in which mTOR is constitutively hyperactivated, were used to delineate translationally controlled gene expression networks upon complete or partial mTOR inhibition. Ribosome profiling was optimized to assess quantitatively ribosome occupancy genome-wide in cancer cells.
Cells were subsequently treated with cycloheximide (100 μg ml^−1; Sigma) and detergent lysis was performed in the dish. The lysate was treated with DNase and clarified, and a sample was taken for RNA-seq analysis. Lysates were subjected to ribosome footprinting by nuclease treatment. Ribosome-protected fragments were purified, and deep sequencing libraries were generated from these fragments, as well as from poly(A) mRNA purified from non-nuclease-treated lysates. These libraries were analyzed by sequencing on an Illumina GAII.
Ribosome footprint and RNA-seq sequencing reads were aligned against a library of transcripts from the UCSC Known Genes database GRCh37/hg19. The first 25 nucleotides of each read were aligned using Bowtie and this initial alignment was then extended to encompass the full fragment-derived portion of the sequencing read while excluding the linker sequence. Read density profiles were then constructed for the canonical transcript of each gene, using only reads with 0 or 1 total mismatches between the read sequence and the reference sequence, comprised of the transcript fragment followed by the linker sequence. Footprint reads were assigned to an A site nucleotide at position +15 to +17 of the alignment, based on the total fragment length; mRNA reads were assigned to the first nucleotide of the alignment. The average read density per codon was then computed for the coding sequence of each transcript, excluding the first 15 and last 5 codons, which can display atypical ribosome accumulation.
Average read density was used as a measure of mRNA abundance (RNA-seq reads) and of protein synthesis (ribosome profiling reads). For most analyses, genes were filtered to require at least 256 reads in the relevant RNA-seq samples. Translational efficiency was computed as the ratio of ribosome footprint read density to RNA-seq read density, scaled to normalize the translational efficiency of the median gene to 1.0 after excluding regulated genes (log 2 fold-change+1.5 after normalizing for the all-gene median). Changes in protein synthesis, mRNA abundance and translational efficiency were similarly computed as the ratio of read densities between different samples, normalized to give the median gene a ratio of 1.0. This normalization corrects for differences in the absolute number of sequencing reads obtained for different libraries.

Q: How did the “Rapamycin TrlEff” value (gene ACD) turn out when `CO[C@H]1C[C@@H]2CC[C@@H](C)[C@@](O)(O2)C(=O)C(=O)N2CCCC[C@H]2C(=O)O[C@H]([C@H](C)C[C@@H]2CC[C@@H](O)[C@H](OC)C2)CC(=O)[C@H](C)/C=C(\C)[C@@H](O)[C@@H](OC)C(=O)[C@H](C)C[C@H](C)/C=C/C=C/C=C/1C` [Rapamycin, rapamycin] was run?
A: 2.06

Q: And the TrlEff (gene ACTG1)?
A: −0.07

Q: What about the TrlEff (gene AGRN) of the same molecule?
A: 0.51

Q: And the TrlEff (gene AHCY)?
A: −0.23

Q: And the TrlEff (gene ALKBH7)?
A: 0.28

Q: What about the TrlEff (gene AP2A1) of the same molecule?
A: −0.04

Q: And the TrlEff (gene ARD1A)?
A: 0.01

Q: What about the TrlEff (gene ATP5G2) of the same molecule?
A: −0.28

Q: And the “Rapamycin TrlEff” value (gene C17orf28)?
A: 1.66

Q: And the TrlEff (gene C21orf66)?
A: −0.09

Q: And the “Rapamycin TrlEff” value (gene CCNA1)?
A: 1.81

Q: And the TrlEff (gene CCNI)?
A: −0.45

Q: What about the TrlEff (gene CD44) of the same molecule?
A: −0.46

Q: What about the TrlEff (gene CIRBP) of the same molecule?
A: 0.10

Q: What about the TrlEff (gene CLPTM1) of the same molecule?
A: 0.26

Q: And the TrlEff (gene COL6A2)?
A: 0.43

Q: And the TrlEff (gene CRTAP)?
A: −1.17

Q: What about the “Rapamycin TrlEff” value (gene DDX51) of the same molecule?
A: 1.68

Q: What about the “Rapamycin TrlEff” value (gene DGCR2) of the same molecule?
A: 1.69

Q: What about the TrlEff (gene ECSIT) of the same molecule?
A: 0.41

Q: What about the “Rapamycin TrlEff” value (gene EEF1A1) of the same molecule?
A: −1.57

Q: And the TrlEff (gene EEF1A2)?
A: −0.03

Q: What about the TrlEff (gene EEF1D) of the same molecule?
A: −0.84

Q: And the TrlEff (gene EEF1G)?
A: −1.15

Q: And the TrlEff (gene EEF2)?
A: −1.12

Q: And the TrlEff (gene EIF3H)?
A: −0.79

Q: What about the TrlEff (gene EIF3L) of the same molecule?
A: −0.85

Q: What about the TrlEff (gene EIF4B) of the same molecule?
A: −1.21

Q: What about the TrlEff (gene EVPL) of the same molecule?
A: 0.30

Q: And the TrlEff (gene FAM83H)?
A: 0.71

Q: And the TrlEff (gene FAM128B)?
A: 0.27

Q: What about the TrlEff (gene FASN) of the same molecule?
A: 0.47

Q: And the TrlEff (gene GAPDH)?
A: −0.27

Q: And the TrlEff (gene GLTSCR2)?
A: −0.68

Q: And the TrlEff (gene GNB2L1)?
A: −0.77

Q: What about the “Rapamycin TrlEff” value (gene GTPBP3) of the same molecule?
A: 1.56

Q: And the TrlEff (gene HNRNPA1)?
A: −0.86

Q: What about the TrlEff (gene HSPA8) of the same molecule?
A: −0.46

Q: What about the TrlEff (gene IMPDH2) of the same molecule?
A: −0.39

Q: And the TrlEff (gene LAMA5)?
A: 0.87

Q: And the TrlEff (gene LMF2)?
A: 0.39

Q: What about the “Rapamycin TrlEff” value (gene MAPK6) of the same molecule?
A: −2.43

Q: And the “Rapamycin TrlEff” value (gene MAPKAPK2)?
A: 1.50

Q: And the TrlEff (gene MTA1)?
A: −0.05

Q: And the TrlEff (gene NCLN)?
A: 0.67

Q: What about the “Rapamycin TrlEff” value (gene NFATC21P) of the same molecule?
A: 1.54

Q: What about the “Rapamycin TrlEff” value (gene NR2F1) of the same molecule?
A: 1.94

Q: What about the TrlEff (gene PABPC1) of the same molecule?
A: −1.44

Q: And the TrlEff (gene PABPC4)?
A: −0.80

Q: What about the TrlEff (gene PACS1) of the same molecule?
A: 0.04

Q: What about the TrlEff (gene PFDN5) of the same molecule?
A: −0.51

Q: And the TrlEff (gene PGLS)?
A: 0.20

Q: What about the TrlEff (gene PGM1) of the same molecule?
A: −0.55

Q: And the TrlEff (gene PNKP)?
A: 0.74

Q: And the “Rapamycin TrlEff” value (gene PRKD3)?
A: −1.72

Q: And the TrlEff (gene PTGES2)?
A: 0.52

Q: And the TrlEff (gene RABGGTB)?
A: −0.84

Q: What about the “Rapamycin TrlEff” value (gene RBPJ) of the same molecule?
A: −1.58

Q: What about the TrlEff (gene RPL3) of the same molecule?
A: −1.08

Q: What about the TrlEff (gene RPL4) of the same molecule?
A: −0.85

Q: What about the TrlEff (gene RPL7) of the same molecule?
A: −1.06

Q: And the TrlEff (gene RPL7A)?
A: −0.74

Q: What about the TrlEff (gene RPL9) of the same molecule?
A: −1.00

Q: What about the TrlEff (gene RPL10) of the same molecule?
A: −0.79

Q: What about the TrlEff (gene RPL10A) of the same molecule?
A: −0.94

Q: And the TrlEff (gene RPL11)?
A: −1.08

Q: What about the TrlEff (gene RPL12) of the same molecule?
A: −0.94

Q: And the TrlEff (gene RPL13)?
A: −0.38

Q: What about the TrlEff (gene RPL15) of the same molecule?
A: −0.51

Q: What about the TrlEff (gene RPL18A) of the same molecule?
A: −0.82

Q: And the TrlEff (gene RPL19)?
A: −0.66

Q: What about the TrlEff (gene RPL22) of the same molecule?
A: −0.89

Q: What about the TrlEff (gene RPL22L1) of the same molecule?
A: −0.68

Q: What about the TrlEff (gene RPL24) of the same molecule?
A: −0.63

Q: And the TrlEff (gene RPL26)?
A: −1.11

Q: And the TrlEff (gene RPL27)?
A: −0.33

Q: And the TrlEff (gene RPL27A)?
A: −0.96

Q: And the “Rapamycin TrlEff” value (gene RPL28)?
A: −1.59

Q: And the TrlEff (gene RPL30)?
A: −0.99

Q: What about the TrlEff (gene RPL31) of the same molecule?
A: −0.62

Q: And the TrlEff (gene RPL32)?
A: −0.97

Q: What about the TrlEff (gene RPL34) of the same molecule?
A: −1.12

Q: What about the TrlEff (gene RPL36A) of the same molecule?
A: −1.11

Q: What about the TrlEff (gene RPL37A) of the same molecule?
A: −1.02

Q: What about the TrlEff (gene RPL39) of the same molecule?
A: −1.65

Q: What about the “Rapamycin TrlEff” value (gene RPL39) of the same molecule?
A: −2.11

Q: What about the TrlEff (gene RPL41) of the same molecule?
A: −1.15

Q: What about the TrlEff (gene RPLP0) of the same molecule?
A: −0.42

Q: What about the TrlEff (gene RPLP2) of the same molecule?
A: −1.18

Q: What about the TrlEff (gene RPS2) of the same molecule?
A: −0.56

Q: What about the TrlEff (gene RPS3) of the same molecule?
A: −0.92

Q: And the TrlEff (gene RPS3A)?
A: −1.15

Q: What about the TrlEff (gene RPS4X) of the same molecule?
A: −1.15

Q: And the TrlEff (gene RPS5)?
A: −0.77

Q: What about the TrlEff (gene RPS7) of the same molecule?
A: −0.76

Q: What about the TrlEff (gene RPS9) of the same molecule?
A: −0.60

Q: What about the TrlEff (gene RPS12) of the same molecule?
A: −1.22

Q: And the TrlEff (gene RPS13)?
A: −0.82

Q: And the TrlEff (gene RPS14)?
A: −0.60

Q: What about the TrlEff (gene RPS15) of the same molecule?
A: 0.03

Q: And the TrlEff (gene RPS15A)?
A: −0.96

Q: What about the TrlEff (gene RPS19) of the same molecule?
A: −0.74

Q: And the TrlEff (gene RPS20)?
A: −1.35

Q: What about the TrlEff (gene RPS21) of the same molecule?
A: −0.60

Q: And the TrlEff (gene RPS25)?
A: −0.89

Q: What about the TrlEff (gene RPS27) of the same molecule?
A: −1.54

Q: And the “Rapamycin TrlEff” value (gene RPS27)?
A: −1.55

Q: What about the TrlEff (gene RPS27A) of the same molecule?
A: −0.89

Q: And the TrlEff (gene RPS28)?
A: −0.80

Q: What about the “Rapamycin TrlEff” value (gene SDCCAG10) of the same molecule?
A: −1.50

Q: What about the TrlEff (gene SLC19A1) of the same molecule?
A: 0.23

Q: And the TrlEff (gene TKT)?
A: −0.11

Q: And the TrlEff (gene TPT1)?
A: −1.22

Q: And the TrlEff (gene TSC2)?
A: 0.34

Q: And the TrlEff (gene UBA52)?
A: −0.22

Q: What about the “Rapamycin TrlEff” value (gene UBTD2) of the same molecule?
A: −1.64

Q: And the “Rapamycin TrlEff” value (gene UCHL5)?
A: −1.56

Q: What about the “Rapamycin TrlEff” value (gene VHL) of the same molecule?
A: 1.67

Q: What about the TrlEff (gene VIM) of the same molecule?
A: −0.40

Q: What about the TrlEff (gene YB1) of the same molecule?
A: −0.59
